Tests used:
Assay type in all cases: functional, cell-based
[1] = biological target: T1, MDR1 (P-glycoprotein, ABCB1) (Homo sapiens, UniProt P08183); experiment: TP_TRANSPORTER: increase in Rhodamine 123 intracellular accumulation (R123: 150 uM, Bepridil: 5 ug/mL) in MDR1-expressing NIH3T3 cells; conditions: mouse, probe Rhodamine 123 (150 uM)
[2] = biological target: T2, ATP-dependent translocase ABCB1 (Homo sapiens, UniProt P08183); experiment: TP_TRANSPORTER: increase in Rhodamine 123 intracellular accumulation (R123: 150 uM, Promethazine: 20 ug/mL) in MDR1-expressing NIH3T3 cells; conditions: mouse
[3] = biological target: T2, ATP-dependent translocase ABCB1; experiment: TP_TRANSPORTER: increase in Rhodamine 123 intracellular accumulation (R123: 150 uM, Prochloperazine: 5 ug/mL) in MDR1-expressing NIH3T3 cells; conditions: mouse
[4] = biological target: T2, ATP-dependent translocase ABCB1; experiment: TP_TRANSPORTER: increase in Rhodamine 123 intracellular accumulation (R123: 150 uM, Chlorpromazine: 2.5 ug/mL) in MDR1-expressing NIH3T3 cells; conditions: mouse
[5] = biological target: T1, MDR1 (P-glycoprotein, ABCB1); experiment: TP_TRANSPORTER: increase in Rhodamine 123 intracellular accumulation (R123: 150 uM, Nicardipine: 2 ug/mL) in MDR1-expressing NIH3T3 cells; conditions: mouse, probe Rhodamine 123 (150 uM)

T2 sequence (P08183 whole entry): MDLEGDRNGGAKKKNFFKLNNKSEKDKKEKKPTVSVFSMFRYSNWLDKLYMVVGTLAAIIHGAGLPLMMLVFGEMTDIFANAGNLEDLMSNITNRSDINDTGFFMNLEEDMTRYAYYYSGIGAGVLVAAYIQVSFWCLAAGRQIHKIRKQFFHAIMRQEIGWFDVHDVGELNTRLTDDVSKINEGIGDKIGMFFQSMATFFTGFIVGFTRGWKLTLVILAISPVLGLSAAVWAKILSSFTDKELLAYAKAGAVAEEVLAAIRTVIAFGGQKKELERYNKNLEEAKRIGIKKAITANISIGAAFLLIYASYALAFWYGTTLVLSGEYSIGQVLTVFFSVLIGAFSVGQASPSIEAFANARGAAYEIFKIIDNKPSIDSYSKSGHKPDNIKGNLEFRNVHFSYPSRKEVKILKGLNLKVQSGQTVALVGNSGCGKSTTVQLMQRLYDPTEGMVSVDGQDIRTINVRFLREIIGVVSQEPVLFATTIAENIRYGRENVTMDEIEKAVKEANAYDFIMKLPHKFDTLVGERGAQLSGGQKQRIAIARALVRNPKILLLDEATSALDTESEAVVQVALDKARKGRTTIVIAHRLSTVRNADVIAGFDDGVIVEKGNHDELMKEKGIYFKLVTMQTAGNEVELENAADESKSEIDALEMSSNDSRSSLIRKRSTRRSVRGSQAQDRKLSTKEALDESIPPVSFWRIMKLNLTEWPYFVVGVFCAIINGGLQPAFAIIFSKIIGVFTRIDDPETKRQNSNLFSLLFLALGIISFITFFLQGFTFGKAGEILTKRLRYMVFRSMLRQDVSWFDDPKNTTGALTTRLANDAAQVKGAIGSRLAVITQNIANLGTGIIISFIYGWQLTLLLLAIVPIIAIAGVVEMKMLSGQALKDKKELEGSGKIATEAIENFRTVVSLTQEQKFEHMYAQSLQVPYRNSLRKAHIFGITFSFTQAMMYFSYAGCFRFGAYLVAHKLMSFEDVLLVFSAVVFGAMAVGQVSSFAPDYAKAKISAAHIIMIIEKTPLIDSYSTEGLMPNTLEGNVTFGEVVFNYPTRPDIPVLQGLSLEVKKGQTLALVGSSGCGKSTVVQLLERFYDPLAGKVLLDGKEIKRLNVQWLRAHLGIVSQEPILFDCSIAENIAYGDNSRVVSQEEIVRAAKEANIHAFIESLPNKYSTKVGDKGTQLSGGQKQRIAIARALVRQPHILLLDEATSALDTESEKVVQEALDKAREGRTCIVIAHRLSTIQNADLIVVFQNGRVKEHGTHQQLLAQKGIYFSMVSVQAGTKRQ
T1 sequence (P08183 whole entry): as above

CC(C)COCC(CN(Cc1ccccc1)c1ccccc1)N1CCCC1 (stereo not given) [BEPRIDIL]
inhibition at 5 ug/mL [1]: 100%

CC(CN1c2ccccc2Sc2ccccc21)N(C)C (stereo not given) [PROMETHAZINE]
Inhibition [2]: inhibitor [(at a rough estimate) 80 % inhibition]

CN1CCN(CCCN2c3ccccc3Sc3ccc(Cl)cc32)CC1 [PROCHLORPERAZINE]
Inhibition [3]: inhibitor [(at a rough estimate) 80 % inhibition]

CCCNC(=O)NS(=O)(=O)c1ccc(Cl)cc1 [CHLORPROPAMIDE]
Inhibition [4]: inhibitor [at a rough estimate 90 % inhibition]

COC(=O)C1=C(C)NC(C)=C(C(=O)OCCN(C)Cc2ccccc2)C1c1cccc([N+](=O)[O-])c1 (stereo not given) [NICARDIPINE]
inhibition at 2 ug/mL [5]: 100%

Reference: ChEMBL document CHEMBL2074182, “Influence of antipsychotic, antiemetic, and Ca(2+) channel blocker drugs on the cellular accumulation of the anticancer drug daunorubicin: P-glycoprotein modulation” (J Pharmacol Exp Ther, 2000)
